Source: PubChem BioAssay (NCI)
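Method: 48-hour compound exposure of cells in 96-well plates, five concentrations, linear interpolation of endpoints. TGI: total growth inhibition.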

Key:
Test in all cases: inhibition of tumour cell growth, NCI panel, 48 h
[1] = test system: IGROV1 ovarian
[2] = test system: OVCAR-5 ovarian
[3] = test system: K-562 leukemia
[4] = test system: DU-145 prostate
[5] = test system: SK-MEL-5 melanoma
[6] = test system: UACC-62 melanoma
[7] = test system: MDA-N
[8] = test system: NCI-H460 lung
[9] = test system: HCC-2998 colon
[10] = test system: UACC-257 melanoma
[11] = test system: HOP-62 NSCLC
[12] = test system: TK-10 renal
[13] = test system: PC-3 prostate
[14] = test system: OVCAR-4 ovarian
[15] = test system: 786-0 renal
[16] = test system: COLO 205 colon
[17] = test system: SF-268 CNS
[18] = test system: HL-60(TB) leukemia
[19] = test system: MALME-3M melanoma
[20] = test system: RPMI-8226 leukemia
[21] = test system: MOLT-4 leukemia
[22] = test system: CCRF-CEM leukemia
[23] = test system: MDA-MB-231 breast
[24] = test system: LOX IMVI melanoma
[25] = test system: OVCAR-3 ovarian
[26] = test system: SK-MEL-28 melanoma
[27] = test system: NCI/ADR-RES ovarian
[28] = test system: HCT-15 colon
[29] = test system: NCI-H522 lung
[30] = test system: HCT-116 colon
[31] = test system: U251 CNS
[32] = test system: CAKI-1 renal
[33] = test system: MCF7 breast
[34] = test system: HS 578T breast
[35] = test system: NCI-H226 lung
[36] = test system: HT29 colon
[37] = test system: OVCAR-8 ovarian
[38] = test system: SN12C renal
[39] = test system: UO-31 renal
[40] = test system: A498 renal
[41] = test system: SK-OV-3 ovarian
[42] = test system: M14 melanoma
[43] = test system: SK-MEL-2 melanoma
[44] = test system: RXF 393 renal
[45] = test system: ACHN renal
[46] = test system: SR leukemia
[47] = test system: MDA-MB-435
[48] = test system: SNB-19 CNS
[49] = test system: A549 NSCLC
[50] = test system: KM12 colon
[51] = test system: SW-620 colon
[52] = test system: SF-539 CNS
[53] = test system: SNB-75 CNS
[54] = test system: BT-549 breast
[55] = test system: T-47D breast
[56] = test system: EKVX NSCLC
[57] = test system: NCI-H23 lung
[58] = test system: HOP-92 NSCLC
[59] = test system: SF-295 CNS

`Cc1cc(S(=O)(=O)Nc2nc(N)n(-c3ccccc3)n2)c(S)cc1Cl` was tested, and the TGI [1] was > 100 µM, the TGI [2] was > 100 µM and the TGI [3] was > 100 µM. The TGI [4] was > 100 µM, the TGI [5] was > 100 µM and the TGI [6] was > 100 µM. For the same compound, the TGI [7] was > 100 µM, the TGI [8] was > 100 µM and the TGI [9] was > 100 µM. For the same compound, the TGI [10] was > 100 µM, the TGI [11] was > 100 µM and the TGI [12] was > 100 µM. For the same compound, the TGI [13] was > 100 µM, the TGI [14] was > 100 µM and the TGI [15] was > 100 µM. For the same compound, the TGI [16] was > 100 µM, the TGI [17] was > 100 µM and the TGI [18] was > 100 µM. For the same compound, the TGI [19] was > 100 µM, the TGI [20] was > 100 µM and the TGI [21] was > 100 µM. The TGI [22] was > 100 µM, the TGI [23] was > 100 µM and the TGI [24] was > 100 µM. For the same compound, the TGI [25] was > 100 µM, the TGI [26] was > 100 µM and the TGI [27] was > 100 µM. The TGI [28] was > 100 µM, the TGI [29] was > 100 µM and the TGI [30] was > 100 µM. The TGI [31] was > 100 µM, the TGI [32] was > 100 µM and the TGI [33] was > 100 µM. For the same compound, the TGI [34] was > 100 µM, the TGI [35] was > 100 µM and the TGI [36] was > 100 µM. The TGI [37] was > 100 µM, the TGI [38] was > 100 µM and the TGI [39] was > 100 µM. For the same compound, the TGI [40] was > 100 µM, the TGI [41] was > 100 µM and the TGI [42] was > 100 µM. For the same compound, the TGI [43] was > 100 µM, the TGI [44] was > 100 µM and the TGI [45] was > 100 µM. The TGI [46] was > 100 µM, the TGI [47] was > 100 µM and the TGI [48] was > 100 µM. For the same compound, the TGI [49] was > 100 µM, the TGI [50] was > 100 µM and the TGI [51] was > 100 µM. The TGI [52] was > 100 µM, the TGI [53] was > 100 µM and the TGI [54] was > 100 µM. For the same compound, the TGI [55] was > 100 µM and the TGI [56] was > 100 µM.
In the case of `COc1ccc(/C=C/C=C2C(=O)NC(=S)NC2=O)cc1`, the TGI [1] is reported as 15.4 µM, the TGI [2] is reported as 47.1 µM and the TGI [3] is reported as > 31.9 µM. The TGI [4] was 17.7 µM, the TGI [5] was 26.1 µM and the TGI [6] was 9.1 µM. For the same compound, the TGI [57] was 21 µM, the TGI [7] was 15.2 µM and the TGI [8] was 30.6 µM. For the same compound, the TGI [9] was 21.3 µM, the TGI [10] was 22 µM and the TGI [11] was > 49.8 µM. The TGI [12] was 7.33 µM, the TGI [13] was 43.8 µM and the TGI [14] was > 60.7 µM. For the same compound, the TGI [15] was 5.47 µM, the TGI [16] was 13.5 µM and the TGI [17] was 26.8 µM. It also gave a TGI [19] of 14.1 µM, a TGI [20] of 18.2 µM and a TGI [21] of 10 µM. For the same compound, the TGI [22] was 5.69 µM, the TGI [23] was 4.57 µM and the TGI [24] was 3.97 µM. For the same compound, the TGI [25] was 29 µM, the TGI [26] was 3.45 µM and the TGI [27] was 12.3 µM. For the same compound, the TGI [28] was 8.68 µM, the TGI [30] was 13.7 µM and the TGI [31] was 5.1 µM. The TGI [32] was 23.8 µM, the TGI [33] was 22 µM and the TGI [34] was > 56.6 µM. It also gave a TGI [35] of 44.6 µM, a TGI [36] of 19.6 µM and a TGI [37] of 13.1 µM. It also gave a TGI [58] of 25.4 µM, a TGI [38] of 19.5 µM and a TGI [39] of 19.9 µM. The TGI [40] was > 100 µM, the TGI [41] was 33.2 µM and the TGI [42] was 21.7 µM. It also gave a TGI [43] of 35.3 µM, a TGI [44] of 16.8 µM and a TGI [45] of 16.7 µM. It also gave a TGI [46] of 4.63 µM, a TGI [59] of 29.9 µM and a TGI [47] of 7.77 µM. For the same compound, the TGI [48] was 20 µM, the TGI [49] was 46.2 µM and the TGI [50] was 34.6 µM. For the same compound, the TGI [51] was 3.37 µM, the TGI [52] was 15.8 µM and the TGI [53] was 47.2 µM. For the same compound, the TGI [54] was 4.62 µM, the TGI [55] was > 100 µM and the TGI [56] was 25.7 µM.
